The values that follow come from patent US7666850B2, “Drug screens based on the newly found role of dystroglycan proteolysis and restoration of dystroglycan function thereof” (The Regents of the University of California, priority 1999, dated 2010).

In assay [1] the test system is HMT-3522-T4 (T4) cells. Kind of assay: 3-dimensional basement membrane (3D-BM) assay, HMT-3522-T4 cells. In kind it is cell-based. The text has this:
Dystroglycan function reduces the growth potential and induces polarity in normal mammary epithelial cells exposed to basement membrane proteins. […] Because dystroglycan function is lost in part by proteolytic shedding, inhibition of dystroglycan shedding can restore or enhance dystroglycan function. Therefore, restoration of dystroglycan function can be used as an assay for inhibitors of the metaloproteinase(s) cleaving and shedding α-dystroglycan. […] The cells were counted and 100,000 cells were resuspended in 0.3-0.5 mls of growth factor-reduced Matrigel (Collaborative Research). This mixture was placed into a 1.5 cm diameter cell culture well, and incubated at 37 degrees Celsius for 30 minutes to induce gelling of the Matrigel. Subsequently, the gelled cell-BM protein mixture was overlayed with growth medium with or without the addition of protease inhibitors or control substances. The cells were cultured at 37 degrees Celsius in a cell culture incubator at 5% carbon dioxide. The growth medium and additives were changed every two days.
The assay was allowed to proceed from 6 to 10 days. […] Measures of polarity and reduced growth potential can be easily optimized by methods existing in the art.

In assay [2] the test system is MMPs. As to conditions: MPs other than some ADAMs; cited from earlier work.
Assay [3] concerns α-dystroglycan shedding, SCg6 mammary carcinoma cells. As to the kind of experiment: Dystroglycan proteolysis assay: immunoblot detection of α-dystroglycan shed from the cell surface into culture medium. It counts as cell-based. On the technique in general: Immunoblotting shows a protein as a band on a membrane.
Protocol: To ask if shedding was induced by the proteolysis, we treated the cells with a general matrix metaloproteinase (MW) inhibitor, GM6001, to see if α-dystroglycan shedding was inhibited.
Cleavage of a-dystroglycan was detected using cultured cells that cleave and shed dystroglycan from the cell surface. Dystroglycan cleavage was assayed for by immunoblotting to detect the presence of dystroglycan fragments in the medium of cultured cells. Mammary carcinoma cell lines SCg6 or TCL1 were cultured in 10 milliliters (ml) DMEM/F12 medium supplemented with 2% fetal calf serum, 5 μg/ml insulin (Sigma Chemical Co., St. Louis, Mo.), and 50 μg/ml Gentamycin (UCSF Cell Culture Facility). The cells were allowed to grow to 80% confluence in 10 centimeter (cm) plastic tissue culture dishes. The cells were rinsed two times with phosphate-buffered saline (PBS) and the medium was then changed to 10 mls DMEM/F12 medium supplemented with insulin, and Gentamycin, but without added serum. The cells were incubated in this serum-free medium for 48 hrs, then this conditioned medium was harvested and filtered through 0.4 µm filters to remove cells or cell debris. The harvested medium was concentrated from 10 ml to approximately 1.0 ml using a CENTRIPREP-30 concentrator (Amicon, Beverly, Mass.). The concentrated supernatant was added to 1/10th volume of 10× sample buffer (50% glycerol, 100 mM acetic acid, 10% SDS (w/v), 12.5% (v/v) β-mercaptoethanol, bromophenol blue) and heated at 70 degrees Celsius for 15 minutes prior to loading on SDS-polyacrylamide (SDS-PAGE) gels, and subjected to immunoblot analysis. Assays of dystroglycan cleavage and shedding in the presence of the metaloproteinase inhibitor GM6001 (AMS Scientific, Pleasant Hills, Calif.) were performed in the same manner, with varying concentrations of GM6001, or the control C1004 (AMS Scientific), diluted into the serum-free culture medium at the beginning of the 48 hour incubation. To compare treatments, equivalent volumes of conditioned medium from each treated cell population were loaded onto the gel to determine the relative quantities of dystroglycan shed into the medium.
After separation on an 8% SDS-PAGE gels, the proteins were electrophoretically transferred to Immobilon-P membranes (Millipore Corp., Bedford, Mass.) using methanol transfer buffer (20 mM Tris pH 8.3, 150 mM glycine, 0.5% SDS, 20% methanol). Following the transfer, the membranes were blocked for two hours in low salt TBST buffer (20 mM Tris-HCI, pH 8.0, 100 mM NaCl, 1.0% Tween-20 detergent) plus 5% non-fat dried milk (Lucerne). After blocking, the membranes were incubated for 45 minutes with the IIH6 monoclonal antibody (primary antibody against α-dystroglycan, obtained from Dr. Kevin Campbell, University of Iowa) diluted in low salt TBST plus 5% dried milk. The primary antibody was diluted 1:20 from a concentrated (8×) stock of hybridoma supernatant. After incubation with the primary antibody, the membranes were washed with low-salt TBST and incubated 45 minutes with an horse radish peroxidase (HRP) conjugated secondary antibody (anti-IgM Product # A 8786 from Sigma).
Assay [4] has as its system MDA-MD-231 cells. Kind of assay: 3-dimensional basement membrane (3D-BM) assay, MDA-MD-231 cells. It counts as cell-based. An excerpt:
Dystroglycan function reduces the growth potential and induces polarity in normal mammary epithelial cells exposed to basement membrane proteins. […] Because dystroglycan function is lost in part by proteolytic shedding, inhibition of dystroglycan shedding can restore or enhance dystroglycan function. Therefore, restoration of dystroglycan function can be used as an assay for inhibitors of the metaloproteinase(s) cleaving and shedding α-dystroglycan. Carcinoma cell lines, including the HMT-3522-T4 cells and MDA-MD-231 cells, were cultured within the 3-dimensional basement membrane (3-D BM) assay. To accomplish this the cells were trypsinized from routine cell culture, washed once with DMEM/F12 medium, treated with soybean trypsin inhibitor, washed again with DMEM/F12 medium and resuspended in growth medium [DMEM/F12, supplemented with insulin 250 ng/ml (Boehringer Mannheim, Indianapolis, Ind.), 10 μg/ml transferrin (Sigma), 2.6 ng/ml sodium selenite (Collaborative Research), 1.4×10^−6 M hydrocortisone (Collaborative Research), 1×10^−10 M β-estradiol (Sigma),5 μg/ml prolactin (Sigma)]. The cells were counted and 100,000 cells were resuspended in 0.3-0.5 mls of growth factor-reduced Matrigel (Collaborative Research). This mixture was placed into a 1.5 cm diameter cell culture well, and incubated at 37 degrees Celsius for 30 minutes to induce gelling of the Matrigel. Subsequently, the gelled cell-BM protein mixture was overlayed with growth medium with or without the addition of protease inhibitors or control substances. The cells were cultured at 37 degrees Celsius in a cell culture incubator at 5% carbon dioxide. The growth medium and additives were changed every two days.
The assay was allowed to proceed from 6 to 10 days. Over this time, the cells grew from single cells within the gel to form multicellular aggregates with variable characteristics, from polarized and growth arrested (normal phenotype), to disorganized and growing (tumorigenic phenotype), to invasive. […]

Entries after “also recorded” stand apart in the source; their conditions may differ.

Consider `CNC(=O)[C@H](Cc1c[nH]c2ccccc12)NC(=O)[C@@H](CC(=O)NO)CC(C)C` [GM6001, N-[2(R)-2(hydroxamidocarbonylmethyl)-4-methylpentanoyl]-L-tryptophane methylamide], for which the “effect on tumor cell growth characteristics in the 3D-BM assay” value is “No effect” in assay [1] (2 μM, FIG. 3B) and “No effect” in assay [4] (2 μM, FIG. 3F). For the same molecule, in assay [1] (40 μM, FIGS. 3C, 3D), the “tumorigenic phenotype in the 3D-BM assay” value was “Complete “reversion” of the tumor phenotype; also recorded: caused growth arrest, polarization and reversion to a non-tumorigenic phenotype”. For the same molecule, the “cell growth after removal of the inhibitor” value in assay [1] (removal for 7 days following a ten-day incubation with the inhibitor) is on record as “did not permit a re-initiation of cell growth”. The “GM6001 concentrations that generally inhibit other MP's” value in assay [2] is “below 30 μM”. For the same molecule, the “shedding of α-dystroglycan (proteolysed form) into the culture supernatant” value in assay [3] (40 μM, FIG. 1B) is listed as “blocked; also recorded: no longer detected”. For the same molecule, in assay [3] (five different concentrations, FIG. 1C), the “shedding of α-dystroglycan in the supernatant across a concentration series” value was “differentially blocked”. Moreover, the Ki in assay [3] (titration of GM6001, FIG. 1C, 48 h serum-free medium, read-out: Ki (pKi) for inhibition of α-dystroglycan shedding (converted)) was about 10 µM. In assay [3] (titration, FIG. 1C), the “concentration giving nearly complete inhibition of α-dystroglycan shedding” value is reported as “over 25 μM”. The “growth and invasion of MDA-MD-231 cells in the 3D-BM assay” value in assay [4] (40 μM, FIGS. 3G, 3H) is “potently inhibited the growth and invasion”. For the same molecule, the “concentration required to reduce growth (and invasion) of MDA-MD-231 cells” value in assay [4] (6 to 10 days in Matrigel) is recorded as “over 20 μM”.
Take TAPI: the “reversion of the T4 tumor cell line in the 3D-BM assay” value in assay [1] (10 μM) is listed as “revert”.

One may read the Ki as the equilibrium dissociation constant of an inhibitor or competing ligand from its target.
